System: Onchocerca gutturosa Adult Male Worms
Test: Onchocerciasis in vitro screening model, worm motility score
Assay type: cell-based
Details: Onchocerca gutturosa; Table 1 O. gutturosa; levels A/B/C; motility or MTT readout not specified; read-out: O. gutturosa activity level (IC50 or MED)

| Structure (SMILES) | IC50 [nM] |
| --- | --- |
| FC(F)(F)c1ccc(Nc2nc(-c3ccccn3)ns2)nc1 [Cmpd 1] | < 200 |
| COc1ccc(Nc2nc(-c3ccccn3)ns2)nc1 [Cmpd 2, N-(5-methoxy-pyridin-2-yl)-3-(pyridin-2-yl)-1,2,4-thiadiazol-5-amine] | 500 to 5000 |
| FC(F)(F)c1cncc(Nc2nc(-c3ccccn3)ns2)c1 [Cmpd 3, 3-(pyridin-2-yl)-N-(5-(trifluoromethyl)pyridin-3-yl)-1,2,4-thiadiazol-5-amine] | 500 to 5000 |
| c1ccc(-c2nsc(Nc3ccc(N4CCNCC4)cn3)n2)nc1 [Cmpd 4, N-(5-(piperazin-1-yl)pyridin-2-yl)-3-(pyridin-2-yl)-1,2,4-thiadiazol-5-amine] | 500 to 5000 |
| c1ccc(-c2nsc(Nc3ccc(N4CCOCC4)cn3)n2)nc1 [Cmpd 5, N-(5-morpholino-pyridin-2-yl)-3-(pyridin-2-yl)-1,2,4-thiadiazol-5-amine] | 500 to 5000 |
| c1ccc(-c2nsc(Nc3ccc(N4CCCCC4)cn3)n2)nc1 [Cmpd 6, N-(5-(piperidin-1-yl)pyridin-2-yl)-3-(pyridin-2-yl)-1,2,4-thiadiazol-5-amine] | < 200 |
| c1ccc(-c2nsc(Nc3ccc(N4CCCC4)cn3)n2)nc1 [Cmpd 8, 3-(pyridin-2-yl)-N-(5-(pyrrolidin-1-yl)pyridin-2-yl)-1,2,4-thiadiazol-5-amine] | < 200 |
| c1ccc(-c2nsc(Nc3ccc(OC4CCOCC4)cn3)n2)nc1 [Cmpd 9, 3-(pyridin-2-yl)-N-(5-(tetrahydro-2H-pyran-4-yloxy)pyridin-2-yl)-1,2,4-thiadiazol-5-amine] | 500 to 5000 |
| c1ccc(-c2nsc(Nc3ccc(OC4CCNCC4)cn3)n2)nc1 [Cmpd 10, N-(5-(piperidin-4-yloxy)pyridin-2-yl)-3-(pyridin-2-yl)-1,2,4-thiadiazol-5-amine] | 500 to 5000 |
| CN1CCC(Oc2ccc(Nc3nc(-c4ccccn4)ns3)nc2)CC1 [Compound 11, N-(5-(1-methyl-piperidin-4-yloxy)pyridin-2-yl)-3-(pyridin-2-yl)-1,2,4-thiadiazol-5-amine] | 500 to 5000 |
| Cc1ccnc(-c2nsc(Nc3ncccc3F)n2)c1 [Compound 12, N-(3-fluoropyridin-2-yl)-3-(4-methylpyridin-2-yl)-1,2,4-thiadiazol-5-amine] | < 200 |
| Cc1ccnc(Nc2nc(-c3ncccc3C(F)(F)F)ns2)c1 [Compound 13, N-(4-methyl-pyridin-2-yl)-3-(3-(trifluoro-methyl)pyridin-2-yl)-1,2,4-thiadiazol-5-amine] | 500 to 5000 |
| Cc1ccnc(-c2noc(Nc3ncccc3F)n2)c1 [Compound 14, N-(3-fluoro-pyridin-2-yl)-3-(4-methylpyridin-2-yl)-1,2,4-oxadiazol-5-amine] | 500 to 5000 |
| Cc1cccnc1Nc1nc(-c2ccc(OC3CCOCC3)cn2)ns1 [Compound 15, N-(3-methyl-pyridin-2-yl)-3-(5-(tetrahydro-2H-pyran-4-yloxy)pyridin-2-yl)-1,2,4-thiadiazol-5-amine] | < 200 |
| Cc1cccnc1Nc1nc(-c2ccc(OC3CCOCC3)cn2)no1 [Compound 16, N-(3-methyl-pyridin-2-yl)-3-(5-(tetrahydro-2H-pyran-4-yloxy)pyridin-2-yl)-1,2,4-oxadiazol-5-amine] | < 200 |
| Cc1cccnc1Nc1nc(-c2ccc(C(=O)N(C)C)cn2)ns1 [Compound 17, N,N-dimethyl-6-(5-(3-methylpyridin-2-ylamino)-1,2,4-thiadiazol-3-yl)nicotinamide] | < 200 |
| Cc1cccnc1Nc1nc(-c2ccc(OC3CCN(C)CC3)cn2)ns1 [Compound 18, 3-(5-(1-methyl-piperidin-4-yloxy)pyridin-2-yl)-N-(3-methylpyridin-2-yl)-1,2,4-thiadiazol-5-amine] | 200 to 500 |
| Cc1cccnc1Nc1nc(-c2ccc(OC(C)C)cn2)ns1 [Compound 19, 3-(5-isopropoxy-pyridin-2-yl)-N-(3-methyl-pyridin-2-yl)-1,2,4-thiadiazol-5-amine] | < 200 |
| Cc1cccnc1Nc1nc(-c2ccc(OC(C)C)cn2)no1 [Compound 20, 3-(5-isopropoxy-pyridin-2-yl)-N-(3-methyl-pyridin-2-yl)-1,2,4-oxadiazol-5-amine] | < 200 |
| Cc1cccnc1Nc1nc(-c2ccc(OC3CCN(C)CC3)cn2)no1 [Compound 21, 3-(5-(1-methyl-piperidin-4-yloxy)pyridin-2-yl)-N-(3-methylpyridin-2-yl)-1,2,4-oxadiazol-5-amine] | < 200 |
| Cc1cccnc1Nc1nc(-c2cc(C(=O)N(C)C)ccn2)ns1 [Compound 22, N,N-dimethyl-2-(5-(3-methylpyridin-2-ylamino)-1,2,4-thiadiazol-3-yl)isonicotinamide] | 500 to 5000 |
| CNc1cccnc1Nc1nc(-c2cc(C)ccn2)ns1 [Compound 23, N3-methyl-N2-(3-(4-methylpyridin-2-yl)-1,2,4-thiadiazol-5-yl) pyridine-2,3-diamine] | < 200 |
| COc1cccnc1Nc1nc(-c2cc(C)ccn2)ns1 [Compound 24, N-(3-methoxy-pyridin-2-yl)-3-(4-methyl-pyridin-2-yl)-1,2,4-thiadiazol-5-amine] | < 200 |

| Structure (SMILES) | IC50 [nM] |
| --- | --- |
| CCOc1ccc(Nc2nc(-c3ncccc3F)no2)nc1 [Compound 25, N-(5-ethoxy-pyridin-2-yl)-3-(3-fluoropyridin-2-yl)-1,2,4-oxadiazol-5-amine] | < 200 |
| Cc1cccnc1Nc1nc(-c2ccc(N3CCS(=O)(=O)CC3)cn2)ns1 [Compound 26, 4-(6-(5-((3-methylpyridin-2-yl)amino)-1,2,4-thiadiazol-3-yl)pyridin-3-yl)thio-morpholine 1,1-dioxide] | 500 to 5000 |
| Fc1cccnc1-c1noc(Nc2cc(C(F)(F)F)ccn2)n1 [Compound 27, 3-(3-fluoropyridin-2-yl)-N-(4-(trifluoro-methyl)pyridin-2-yl)-1,2,4-oxadiazol-5-amine] | < 200 |
| FC(F)(F)c1ccnc(Nc2nc(-c3ccccn3)no2)c1 [Compound 28, 3-(pyridin-2-yl)-N-(4-(trifluoro-methyl)pyridin-2-yl)-1,2,4-o xadiazol-5-amine] | < 200 |
| CC(=O)Nc1ccc(-c2nsc(Nc3ncccc3C)n2)nc1 [Compound 29, N-(6-(5-(3-methylpyridin-2-ylamino)-1,2,4-thiadiazol-3-yl)pyridin-3-yl) acetamide] | 200 to 500 |
| CN1CCC(Oc2ccc(-c3nsc(Nc4ncccc4F)n3)nc2)CC1 [Compound 30, N-(3-fluoro-pyridin-2-yl)-3-(5-(1-methyl-piperidin-4-yloxy)pyridin-2-yl)-1,2,4-thiadiazol-5-amine] | < 200 |
| Cc1cccnc1Nc1nc(-c2ccc(S(=O)(=O)N(C)C)cn2)ns1 [Compound 31, N,N-dimethyl-6-(5-(3-methylpyridin-2-ylamino)-1,2,4-thiadiazol-3-yl)pyridine-3-sulfonamide] | 500 to 5000 |
| Cc1cccnc1-c1nnc(Nc2ccccn2)o1 [Compound 32, 5-(3-methyl-pyridin-2-yl)-N-(pyridin-2-yl)-1,3,4-oxadiazol-2-amine] | 500 to 5000 |
| c1ccc(Nc2nc(-c3ccccn3)ns2)nc1 [Compound 33, N,3-di(pyridin-2-yl)-1,2,4-thiadiazol-5-amine] | < 200 |
| CN1CCC(Oc2ccc(-c3nsc(Nc4cc(C(F)(F)F)ccn4)n3)nc2)CC1 [Compound 34, 3-(5-(1-methyl-piperidin-4-yloxy)pyridin-2-yl)-N-(4-(trifluoro-methyl)pyridin-2-yl)-1,2,4-thiadiazol-5-amine] | 500 to 5000 |
| CCOc1ccc(Nc2nc(-c3cc(OC)ccn3)no2)nc1 [Compound 35, N-(5-ethoxy-pyridin-2-yl)-3-(4-methoxy-pyridin-2-yl)-1,2,4-oxadiazol-5-amine] | < 200 |
| CN1CCC(Oc2ccc(-c3nsc(Nc4ncccn4)n3)nc2)CC1 [Compound 36, 3-(5-(1-methyl-piperidin-4-yloxy)pyridin-2-yl)-N-(pyrimidin-2-yl)-1,2,4-thiadiazol-5-amine] | 500 to 5000 |
| Cc1ccnc(-c2nsc(Nc3ncccc3C(F)(F)F)n2)c1 [Compound 37, 3-(4-methyl-pyridin-2-yl)-N-(3-(trifluoro-methyl)pyridin-2-yl)-1,2,4-thiadiazol-5-amine] | < 200 |
| Cc1cccnc1Nc1nc(-c2ccc(OC3CC3)cn2)ns1 [Compound 38, 3-(5-cyclo-propoxypyridin-2-yl)-N-(3-methyl-pyridin-2-yl)-1,2,4-thiadiazol-5-amine] | < 200 |
| Cc1cccnc1Nc1nc(-c2cc(C#N)ccn2)ns1 [Compound 40, 2-(5-(3-methyl-pyridin-2-ylamino)-1,2,4-thiadiazol-3-yl)isonicotino-nitrile] | 500 to 5000 |
| Cc1cccnc1-c1nnc(Nc2ccccn2)[nH]1 [Compound 41, N-(5-(3-methyl-pyridin-2-yl)-4H-1,2,4-triazol-3-yl)pyridin-2-amine] | < 200 |
| Cc1cccnc1-c1noc(Nc2ccc(N3CCCC3)cn2)n1 [Compound 42, 3-(3-methyl-pyridin-2-yl)-N-(5-(pyrrolidin-1-yl)pyridin-2-yl)-1,2,4-oxadiazol-5-amine] | < 200 |
| COc1ccc(-c2nsc(Nc3ccc(OC4CCOCC4)cn3)n2)nc1 [Compound 43, 3-(5-methoxy-pyridin-2-yl)-N-(5-(tetrahydro-2H-pyran-4-yloxy)pyridin-2-yl)-1,2,4-thiadiazol-5-amine] | < 200 |
| Cc1cccnc1Nc1nc(-c2cc(C3CCN(C)CC3)ccn2)ns1 [Compound 44, 3-(4-(1-methyl-piperidin-4-yl)pyridin-2-yl)-N-(3-methylpyridin-2-yl)-1,2,4-thiadiazol-5-amine] | < 200 |
| Cc1cccnc1Nc1nc(-c2ccc(OC3CCN(C4CC4)CC3)cn2)ns1 [Compound 45, 3-(5-(1-cyclo-propylpiperidin-4-yloxy)pyridin-2-yl)-N-(3-methylpyridin-2-yl)-1,2,4-thiadiazol-5-amine] | < 200 |
| COc1ccc(-c2nsc(Nc3cc(OC4CCOCC4)ccn3)n2)nc1 [Compound 46, 3-(5-methoxy-pyridin-2-yl)-N-(4-(tetrahydro-2H-pyran-4-yloxy)pyridin-2-yl)-1,2,4-thiadiazol-5-amine] | 200 to 500 |
| COc1ccc(-c2noc(Nc3cc(OC4CCOCC4)ccn3)n2)nc1 [Compound 47, 3-(5-methoxy-pyridin-2-yl)-N-(4-(tetrahydro-2H-pyran-4-yloxy)pyridin-2-yl)-1,2,4-oxadiazol-5-amine] | 500 to 5000 |

Source: patent US11505548B2, “Heterocyclic compounds and their use for treatment of helminthic infections and diseases” (Celgene Corporation, priority 2019, dated 2022)
